Experiments:
Protease = Protease (Human immunodeficiency virus 1, UniProt Q9YQ12); assay: Inhibition of HIV1 protease
[1] = tested on: Human immunodeficiency virus 1; assay: Antiviral activity against HIV1 LAI infected in human MT2 cells by MTT assay; assay type: functional, organism-based; conditions: Human immunodeficiency virus 1, M:B_Lai
[2] = tested on: Human immunodeficiency virus 1; assay: Antiviral activity against wild type HIV1 isolate ERS104pre infected in PHA-stimulated human PBMC assessed as inhibition of p24 […] protein production; assay type: functional, organism-based; conditions: Human immunodeficiency virus 1, isolate ERS104pre
[3] = tested on: Human immunodeficiency virus 1; assay: Antiviral activity against multidrug-resistant HIV1 isolate B infected in PHA-stimulated human PBMC assessed as inhibition of p24 […] protein production; assay type: functional, organism-based; conditions: Human immunodeficiency virus 1, isolate B
[4] = tested on: Human immunodeficiency virus 1; assay: Antiviral activity against multidrug-resistant HIV1 isolate C infected in PHA-stimulated human PBMC assessed as inhibition of p24 […] protein production; assay type: functional, organism-based; conditions: Human immunodeficiency virus 1, isolate C
[5] = tested on: Human immunodeficiency virus 1; assay: Antiviral activity against multidrug-resistant HIV1 isolate G infected in PHA-stimulated human PBMC assessed as inhibition of p24 […] protein production; assay type: functional, organism-based; conditions: Human immunodeficiency virus 1, isolate G
[6] = tested on: Human immunodeficiency virus 1; assay: Antiviral activity against multidrug-resistant HIV1 isolate TM infected in PHA-stimulated human PBMC assessed as inhibition of p24 […] protein production; assay type: functional, organism-based; conditions: Human immunodeficiency virus 1, isolate TM
[7] = tested on: Human immunodeficiency virus 1; assay: Antiviral activity against multidrug-resistant HIV1 isolate MM infected in PHA-stimulated human PBMC assessed as inhibition of p24 […] protein production; assay type: functional, organism-based; conditions: Human immunodeficiency virus 1, isolate MM
[8] = tested on: Human immunodeficiency virus 1; assay: Antiviral activity against multidrug-resistant HIV1 isolate JSL infected in PHA-stimulated human PBMC assessed as inhibition of p24 […] protein production; assay type: functional, organism-based; conditions: Human immunodeficiency virus 1, isolate JSL
[9] = tested on: Human immunodeficiency virus 1; assay: Selectivity ratio of IC50 for multidrug-resistant HIV1 isolate B to IC50 for wild type HIV1 isolate ERS104pre; assay type: functional
[10] = tested on: Human immunodeficiency virus 1; assay: Selectivity ratio of IC50 for multidrug-resistant HIV1 isolate C to IC50 for wild type HIV1 isolate ERS104pre; assay type: functional
[11] = tested on: Human immunodeficiency virus 1; assay: Selectivity ratio of IC50 for multidrug-resistant HIV1 isolate G to IC50 for wild type HIV1 isolate ERS104pre; assay type: functional
[12] = tested on: Human immunodeficiency virus 1; assay: Selectivity ratio of IC50 for multidrug-resistant HIV1 isolate TM to IC50 for wild type HIV1 isolate ERS104pre; assay type: functional
[13] = tested on: Human immunodeficiency virus 1; assay: Selectivity ratio of IC50 for multidrug-resistant HIV1 isolate MM to IC50 for wild type HIV1 isolate ERS104pre; assay type: functional
[14] = tested on: Human immunodeficiency virus 1; assay: Selectivity ratio of IC50 for multidrug-resistant HIV1 isolate JSL to IC50 for wild type HIV1 isolate ERS104pre; assay type: functional
[15] = tested on: Human immunodeficiency virus 1; assay: Antiviral activity against indinavir-resistant HIV1 NL4-3; assay type: functional, organism-based; conditions: Human immunodeficiency virus 1, NL4-3
[16] = tested on: Human immunodeficiency virus 1; assay: Antiviral activity against saquinavir-resistant HIV1 NL4-3; assay type: functional, organism-based; conditions: Human immunodeficiency virus 1, NL4-3
[17] = tested on: Human immunodeficiency virus 1; assay: Antiviral activity against lopinavir-resistant HIV1 NL4-3; assay type: functional, organism-based; conditions: Human immunodeficiency virus 1, NL4-3

Protease, sequence (Q9YQ12 whole entry): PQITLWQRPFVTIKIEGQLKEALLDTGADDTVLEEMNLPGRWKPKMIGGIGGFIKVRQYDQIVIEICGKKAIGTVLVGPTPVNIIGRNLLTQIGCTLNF

| SMILES | Ki (Protease) [nM] | IC50 [1] [nM] | other results |
| --- | --- | --- | --- |
| COc1ccc2c(c1)OCCCCCN(C[C@@H](O)[C@H](Cc1ccccc1)NC(=O)O[C@H]1CO[C@H]3OCC[C@H]31)S2(=O)=O | 0.09 | 5.5 |  |
| C=CCCCCOc1cc(OC)ccc1S(=O)(=O)N(C[C@@H](C)CC=C)C[C@@H](O)[C@H](Cc1ccccc1)NC(=O)O[C@H]1CO[C@H]2OCC[C@H]21 | 58 | > 1000 |  |
| COc1ccc2c(c1)OCCCCCCCN(C[C@@H](O)[C@H](Cc1ccccc1)NC(=O)O[C@H]1CO[C@H]3OCC[C@H]31)S2(=O)=O | 0.017 | 14 |  |
| COc1ccc2c(c1)OCCC/C=C\CC[C@@H](C)CN(C[C@@H](O)[C@H](Cc1ccccc1)NC(=O)O[C@H]1CO[C@H]3OCC[C@H]31)S2(=O)=O | 6 | 200 |  |
| COc1ccc2c(c1)OCCC/C=C\CN(C[C@@H](O)[C@H](Cc1ccccc1)NC(=O)O[C@H]1CO[C@H]3OCC[C@H]31)S2(=O)=O | 0.077 | 20 |  |
| COc1ccc2c(c1)OCCC/C=C/CCC(C)(C)CN(C[C@@H](O)[C@H](Cc1ccccc1)NC(=O)O[C@H]1CO[C@H]3OCC[C@H]31)S2(=O)=O | 6.9 | > 1000 |  |
| COc1ccc2c(c1)OCCC/C=C/CC[C@H](C)CN(C[C@@H](O)[C@H](Cc1ccccc1)NC(=O)O[C@H]1CO[C@H]3OCC[C@H]31)S2(=O)=O | 0.15 | 52 |  |
| COc1ccc2c(c1)OCCCC/C=C\CN(C[C@@H](O)[C@H](Cc1ccccc1)NC(=O)O[C@H]1CO[C@H]3OCC[C@H]31)S2(=O)=O | 0.08 | 23 |  |
| CC(C)(C)NC(=O)[C@@H]1CN(Cc2cccnc2)CCN1C[C@@H](O)C[C@@H](Cc1ccccc1)C(=O)N[C@H]1c2ccccc2C[C@H]1O.O |  |  | IC50 [2]: 43 nM; IC50 [3]: > 1000 nM; IC50 [4]: > 1000 nM; IC50 [5]: 340 nM; IC50 [6]: > 1000 nM; IC50 [7]: > 1000 nM; IC50 [8]: > 1000 nM; Ratio IC50 [9]: >23; Ratio IC50 [10]: >23; Ratio IC50 [11]: 5; Ratio IC50 [12]: >23; Ratio IC50 [13]: >23; Ratio IC50 [14]: >23 |
| COc1ccc2c(c1)OCCC/C=C\CC[C@H](C)CN(C[C@@H](O)[C@H](Cc1ccccc1)NC(=O)O[C@H]1CO[C@H]3OCC[C@H]31)S2(=O)=O | 0.31 | 9 |  |
| C=CCCCCOc1cc(OC)ccc1S(=O)(=O)N(C[C@@H](O)[C@H](Cc1ccccc1)NC(=O)O[C@H]1CO[C@H]2OCC[C@H]21)CC(C)(C)CC=C | 82 | > 1000 |  |
| COc1ccc2c(c1)OCC/C=C\CN(C[C@@H](O)[C@H](Cc1ccccc1)NC(=O)O[C@H]1CO[C@H]3OCC[C@H]31)S2(=O)=O | 0.051 | 15 |  |
| COc1ccc2c(c1)OCCCCCCC[C@H](C)CN(C[C@@H](O)[C@H](Cc1ccccc1)NC(=O)O[C@H]1CO[C@H]3OCC[C@H]31)S2(=O)=O | 0.07 | 170 |  |
| C=CCCCCOc1cc(OC)ccc1S(=O)(=O)N(CC=C)C[C@@H](O)[C@H](Cc1ccccc1)NC(=O)O[C@H]1CO[C@H]2OCC[C@H]21 | 1.7 | 270 |  |
| COc1ccc(S(=O)(=O)N(CC(C)C)C[C@@H](O)[C@H](Cc2ccccc2)NC(=O)O[C@H]2CO[C@H]3OCC[C@H]32)cc1 |  | 1.2 |  |
| C=CCCCCN(C[C@@H](O)[C@H](Cc1ccccc1)NC(=O)O[C@H]1CO[C@H]2OCC[C@H]21)S(=O)(=O)c1ccc(OC)cc1OCCC=C | 6.9 |  |  |
| C=CCOc1cc(OC)ccc1S(=O)(=O)N(CC=C)C[C@@H](O)[C@H](Cc1ccccc1)NC(=O)O[C@H]1CO[C@H]2OCC[C@H]21 | 0.1 |  |  |
| COc1ccc2c(c1)OCCCCCCN(C[C@@H](O)[C@H](Cc1ccccc1)NC(=O)O[C@H]1CO[C@H]3OCC[C@H]31)S2(=O)=O | 0.15 | 95 |  |

| SMILES | Ki (Protease) [nM] | IC50 [1] [nM] | other results |
| --- | --- | --- | --- |
| COc1ccc2c(c1)OCCCCCCC[C@@H](C)CN(C[C@@H](O)[C@H](Cc1ccccc1)NC(=O)O[C@H]1CO[C@H]3OCC[C@H]31)S2(=O)=O | 3.7 | 650 |  |
| COc1ccc2c(c1)OCCCCCCCCCCN(C[C@@H](O)[C@H](Cc1ccccc1)NC(=O)O[C@H]1CO[C@H]3OCC[C@H]31)S2(=O)=O | 0.82 | 318 |  |
| C=CCCCCOc1cc(OC)ccc1S(=O)(=O)N(CC(C)CC=C)C[C@@H](O)[C@H](Cc1ccccc1)NC(=O)O[C@H]1CO[C@H]2OCC[C@H]21 (some centres undefined) | 15 | 380 |  |
| COc1ccc2c(c1)OCCC=CCCCCN(C[C@@H](O)[C@H](Cc1ccccc1)NC(=O)O[C@H]1CO[C@H]3OCC[C@H]31)S2(=O)=O |  |  | IC50 [15]: 20 nM; IC50 [16]: 20 nM; IC50 [17]: 20 nM |
| Cc1cccc(C)c1OCC(=O)N[C@@H](Cc1ccccc1)[C@@H](O)C[C@H](Cc1ccccc1)NC(=O)[C@H](C(C)C)N1CCCNC1=O [LOPINAVIR] |  |  | IC50 [2]: 34 nM; IC50 [3]: > 1000 nM; IC50 [4]: > 1000 nM; IC50 [5]: 260 nM; IC50 [6]: > 1000 nM; IC50 [7]: > 1000 nM; IC50 [8]: > 1000 nM; Ratio IC50 [9]: >29; Ratio IC50 [10]: >29; Ratio IC50 [11]: 8; Ratio IC50 [12]: >29; Ratio IC50 [13]: >29; Ratio IC50 [14]: >29 |
| COc1ccc2c(c1)OC/C=C\CN(C[C@@H](O)[C@H](Cc1ccccc1)NC(=O)O[C@H]1CO[C@H]3OCC[C@H]31)S2(=O)=O | 2.4 |  |  |
| CC(C)(C)NC(=O)[C@@H]1C[C@@H]2CCCC[C@@H]2CN1C[C@@H](O)[C@H](Cc1ccccc1)NC(=O)[C@H](CC(N)=O)NC(=O)c1ccc2ccccc2n1 |  |  | IC50 [2]: 8 nM; IC50 [3]: 270 nM; IC50 [4]: 32 nM; IC50 [5]: 30 nM; IC50 [6]: 260 nM; IC50 [7]: 190 nM; IC50 [8]: 300 nM |
| C=CCCOc1cc(OC)ccc1S(=O)(=O)N(CC=C)C[C@@H](O)[C@H](Cc1ccccc1)NC(=O)O[C@H]1CO[C@H]2OCC[C@H]21 | 0.63 |  |  |
| COc1ccc2c(c1)OCCCCCCCC(C)(C)CN(C[C@@H](O)[C@H](Cc1ccccc1)NC(=O)O[C@H]1CO[C@H]3OCC[C@H]31)S2(=O)=O | 6.8 | > 1000 |  |
| C=CCCCCOc1cc(OC)ccc1S(=O)(=O)N(CCCCC=C)C[C@@H](O)[C@H](Cc1ccccc1)NC(=O)O[C@H]1CO[C@H]2OCC[C@H]21 | 16.5 | > 1000 |  |
| COc1ccc2c(c1)OCCCCCCCCN(C[C@@H](O)[C@H](Cc1ccccc1)NC(=O)O[C@H]1CO[C@H]3OCC[C@H]31)S2(=O)=O | 0.47 | 22 |  |
| C=CCCCCN(C[C@@H](O)[C@H](Cc1ccccc1)NC(=O)O[C@H]1CO[C@H]2OCC[C@H]21)S(=O)(=O)c1ccc(OC)cc1OCCCC=C | 11.5 | > 1000 |  |
| C=CCCCOc1cc(OC)ccc1S(=O)(=O)N(CC=C)C[C@@H](O)[C@H](Cc1ccccc1)NC(=O)O[C@H]1CO[C@H]2OCC[C@H]21 | 1.02 | 290 |  |
| C=CCCCCN(C[C@@H](O)[C@H](Cc1ccccc1)NC(=O)O[C@H]1CO[C@H]2OCC[C@H]21)S(=O)(=O)c1ccc(OC)cc1OCC=C | 10 |  |  |
| COc1ccc2c(c1)OCCCCCCCCCN(C[C@@H](O)[C@H](Cc1ccccc1)NC(=O)O[C@H]1CO[C@H]3OCC[C@H]31)S2(=O)=O | 0.67 | 49 |  |
| CC(C)CN(C[C@@H](O)[C@H](Cc1ccccc1)NC(=O)O[C@H]1CCOC1)S(=O)(=O)c1ccc(N)cc1 |  |  | IC50 [2]: 30 nM; IC50 [3]: > 1000 nM; IC50 [4]: 370 nM; IC50 [5]: 430 nM; IC50 [6]: 320 nM; IC50 [7]: 210 nM; IC50 [8]: 620 nM |
| COc1ccc2c(c1)OCCC/C=C/CC[C@@H](C)CN(C[C@@H](O)[C@H](Cc1ccccc1)NC(=O)O[C@H]1CO[C@H]3OCC[C@H]31)S2(=O)=O | 2.8 | 6.3 |  |
| COc1ccc2c(c1)OC/C=C\CCCCN(C[C@@H](O)[C@H](Cc1ccccc1)NC(=O)O[C@H]1CO[C@H]3OCC[C@H]31)S2(=O)=O | 0.058 | 14 |  |
